Measured values from the NIST ThermoML archive (doi:10.1021/acs.jced.7b00503).

Assays:
[1] = wn = mass fraction of the nth substance listed; conditions: Pendant drop shape
[2] = Pendant drop shape

[I-].[Na+] [sodium iodide] + O
surface tension liquid-gas [mN/m], [1]
Conditions | 293.15 K | 298.15 K | 303.15 K | 313.15 K | 323.15 K | 333.15 K
w1 = 0.05 | 73.15 | 72.4 | 71.66 | 70.23 | 68.78 | 67.4
w1 = 0.1 | 73.6 | 73 | 72.22 | 70.81 | 69.34 | 67.93
w1 = 0.15 | 74.17 | 73.48 | 72.79 | 71.36 | 69.81 | 68.42
w1 = 0.2 | 74.7 | 73.96 | 73.34 | 71.85 | 70.35 | 68.86
w1 = 0.25 | 75.15 | 74.4 | 73.8 | 72.45 | 70.95 | 69.43
w1 = 0.3 | 75.5 | 74.9 | 74.26 | 72.92 | 71.56 | 69.96
w1 = 0.35 | 76.29 | 75.71 | 75.08 | 73.76 | 72.5 | 71.19
w1 = 0.4 | 77.1 | 76.5 | 75.85 | 74.6 | 73.35 | 72.24
w1 = 0.45 | 78.25 | 77.63 | 77.03 | 75.96 | 74.77 | 73.77
w1 = 0.5 | 79.35 | 78.85 | 78.34 | 77.3 | 76.17 | 75.04
w1 = 0.55 | 80.66 | 80.14 | 79.68 | 78.66 | 77.68 | 77.15

O [water]
[2]
Conditions | surface tension liquid-gas [mN/m]
293.15 K | 72.75
298.15 K | 71.97
303.15 K | 71.15
313.15 K | 69.55
323.15 K | 67.9
333.15 K | 66.17
343.15 K | 64.39
353.15 K | 62.61

O [water] + [Br-].[K+]
[1], w2 = 0
Conditions | surface tension liquid-gas [mN/m]
293.15 K | 72.75
303.15 K | 71.15
313.15 K | 69.55
323.15 K | 67.9
333.15 K | 66.17
343.15 K | 64.39
353.15 K | 62.61

O [water] + [Br-].[Na+]
[1], w2 = 0
Conditions | surface tension liquid-gas [mN/m]
293.15 K | 72.75
303.15 K | 71.15
313.15 K | 69.55
323.15 K | 67.9
333.15 K | 66.17
343.15 K | 64.39
353.15 K | 62.61

O [water] + [Cl-].[K+]
[1], w2 = 0
Conditions | surface tension liquid-gas [mN/m]
293.15 K | 72.75
303.15 K | 71.15
313.15 K | 69.55
323.15 K | 67.9
333.15 K | 66.17
343.15 K | 64.39
353.15 K | 62.61

O [water] + [Cl-].[Na+]
[1], w2 = 0
Conditions | surface tension liquid-gas [mN/m]
293.15 K | 72.75
298.15 K | 71.97
303.15 K | 71.15
313.15 K | 69.55
323.15 K | 67.9
333.15 K | 66.17

O [water] + [I-].[K+]
[1], w2 = 0
Conditions | surface tension liquid-gas [mN/m]
293.15 K | 72.75
298.15 K | 71.97
303.15 K | 71.15
313.15 K | 69.55
323.15 K | 67.9
333.15 K | 66.17

O [water] + [I-].[Na+]
[1], w2 = 0
Conditions | surface tension liquid-gas [mN/m]
293.15 K | 72.75
298.15 K | 71.97
303.15 K | 71.15
313.15 K | 69.55
323.15 K | 67.9
333.15 K | 66.17
